Experimental data from patent US20260042753A1 (Merck Patent GmbH, priority 2019, published 2026).
Like-named read-outs stand apart in the source and are kept apart here.

What was measured:
c-Kit(V654A) = c-Kit(V654A) (Homo sapiens, UniProt P10721, V654A); assay: c-Kit(V654A) assay; format: biochemical
Outline: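 Radiometric filter-binding read-out: after 3% phosphoric acid stop, peptide-incorporated 33P on filtermat scintillation-counted. Enzyme: human c-Kit V654A, residues 544–end, N-terminal GST fusion.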

[1] = target: mutant cKIT (560-576 and V654A) in GIST430/654 cell line (Homo sapiens (Human), UniProt P10721, DEL560-576/V654A); assay: Cellular testing of cKIT mutant inhibitors: phospho-Y307-cKIT Luminex assay in GIST430/654 cells; format: cell-based; conditions: read-out: GIST 430/654 IC50
Chain of mutant cKIT (560-576 and V654A) in GIST430/654 cell line (P10721 other isoform, or with tags, fused parts or gaps V654A/del 1-25/del 560-576 limits assumed): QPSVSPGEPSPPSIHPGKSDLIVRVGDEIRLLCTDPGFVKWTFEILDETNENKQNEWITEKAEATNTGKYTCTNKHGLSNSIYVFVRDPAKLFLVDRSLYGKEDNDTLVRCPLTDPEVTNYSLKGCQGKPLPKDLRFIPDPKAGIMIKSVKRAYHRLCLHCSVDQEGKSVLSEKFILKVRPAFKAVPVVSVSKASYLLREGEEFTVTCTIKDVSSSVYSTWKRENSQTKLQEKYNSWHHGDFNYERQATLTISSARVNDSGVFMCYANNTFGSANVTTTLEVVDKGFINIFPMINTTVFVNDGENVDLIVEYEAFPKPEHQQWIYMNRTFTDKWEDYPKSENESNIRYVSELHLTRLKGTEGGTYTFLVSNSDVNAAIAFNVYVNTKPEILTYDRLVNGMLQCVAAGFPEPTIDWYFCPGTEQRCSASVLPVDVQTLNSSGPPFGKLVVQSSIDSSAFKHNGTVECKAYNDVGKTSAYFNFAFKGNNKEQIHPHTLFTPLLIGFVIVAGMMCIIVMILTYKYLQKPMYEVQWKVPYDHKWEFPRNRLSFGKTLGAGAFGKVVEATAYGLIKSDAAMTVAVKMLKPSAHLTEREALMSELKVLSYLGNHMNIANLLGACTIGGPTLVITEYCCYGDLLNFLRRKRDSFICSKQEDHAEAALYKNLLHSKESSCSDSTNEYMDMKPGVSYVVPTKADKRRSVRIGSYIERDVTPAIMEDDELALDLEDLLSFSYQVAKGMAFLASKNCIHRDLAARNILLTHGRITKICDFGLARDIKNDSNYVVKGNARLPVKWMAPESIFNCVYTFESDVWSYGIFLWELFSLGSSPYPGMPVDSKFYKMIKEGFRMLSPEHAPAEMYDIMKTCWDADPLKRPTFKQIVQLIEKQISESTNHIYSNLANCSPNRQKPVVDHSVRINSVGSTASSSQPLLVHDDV
Outline: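 Autophosphorylation of mutant cKIT at Y307 was quantified by a Luminex bead sandwich assay (total-cKIT capture, phosphospecific detection) after 45 min compound exposure in GIST430/654 cells, cultured in medium containing 100 nM imatinib. Signals were normalised to solvent (0.3% DMSO) controls and dose-response curves fitted for IC50.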

[2] = Table 1, cKIT autophosphorylation, compounds 45 min
[3] = Table 2, corresponding triazole derivatives

SMILES | IC50 (c-Kit(V654A); Table 1, 200 μM ATP) [nM] | IC50 [1, 2] [nM] | IC50 (c-Kit(V654A); [3]) [nM] | IC50 [1, 3] [nM]
COCCOc1cc2[nH]nc(-c3cc(-c4ccc(C(=O)N5CC(c6ccnc(C)n6)C5)cc4)no3)c2cc1F [A173, 5-fluoro-6-(2-methoxyethoxy)-3-(3-{4-[3-(2-methylpyrimidin-4-yl)azetidine-1-carbonyl]phenyl}-1,2-oxazol-5-yl)-1H-indazole] | 1.1 | 30 | – | –
COCCOc1cc2[nH]nc(-c3cc(-c4ccc(C(=O)N5CC(C#N)C5)nc4)no3)c2cc1F [A96, 1-(5-{5-[5-fluoro-6-(2-methoxy-ethoxy)-1H-indazol-3-yl]-isoxazol-3-yl}-pyridine-2-carbonyl)-azetidine-3-carbonitrile] | 21 | 740 | – | –
COCCOc1cc2[nH]nc(-c3cc(-c4ccc(C(=O)N5CC[C@H]5C(C)(C)O)nc4)no3)c2cc1F [A118, (5-{5-[5-fluoro-6-(2-methoxy-ethoxy)-1H-indazol-3-yl]-isoxazol-3-yl}-pyridin-2-yl)-[(S)-2-(1-hydroxy-1-methyl-ethyl)-azetidin-1-yl]-methanone] | 7.1 | 640 | – | –
COCCOc1cc2[nH]nc(-c3cc(-c4ccc(C(=O)N5CC(N6CC(F)C6)C5)cc4)no3)c2cc1F [A101, 5-fluoro-3-[3-(4-{3-fluoro-[1,3′-biazetidine]-1′-carbonyl}phenyl)-1,2-oxazol-5-yl]-6-(2-methoxyethoxy)-1H-indazole] | 0.94 | 160 | – | –
COCCOc1cc2[nH]nc(-c3cc(-c4ccc(C(=O)N5CC(N6CCOCC6)C5)nc4)no3)c2cc1F [A69, (5-{5-[5-fluoro-6-(2-methoxy-ethoxy)-1H-indazol-3-yl]-isoxazol-3-yl}-pyridin-2-yl)-(3-morpholin-4-yl-azetidin-1-yl)-methanone] | 20 | 190 | – | –
COCCOc1cc2[nH]nc(-c3cc(-c4nc(C(=O)N5CC(F)C5)cs4)no3)c2cc1F [A87, 5-fluoro-3-{3-[4-(3-fluoroazetidine-1-carbonyl)-1,3-thiazol-2-yl]-1,2-oxazol-5-yl}-6-(2-methoxyethoxy)-1H-indazole] | 38 | 590 | – | –
COCCOc1cc2[nH]nc(-c3cc(-c4ccc(N5CC[C@@H]6[C@H]5CCCN6C)cc4)no3)c2cc1F (relative stereo) [A124, 3-(3-{4-[(cis)-4-methyl-octahydro-1H-pyrrolo[3,2-b]pyridin-1-yl]phenyl}-1,2-oxazol-5-yl)-5-fluoro-6-(2-methoxyethoxy)-1H-indazole] | 0.35 | 85 | – | –
COCCOc1cc2[nH]nc(-c3cc(-c4ccc(C(=O)N5CC[C@H]6CNC(=O)[C@H]65)cc4)no3)c2cc1F (relative stereo) [A89, (cis)-1-(4-{5-[5-fluoro-6-(2-methoxyethoxy)-1H-indazol-3-yl]-1,2-oxazol-3-yl}benzoyl)-octahydropyrrolo[3,4-b]pyrrol-6-one] | 0.57 | 320 | – | –
COCCOc1cc2[nH]nc(-c3cc(-c4ccc(C(=O)N5C[C@H]6COCC[C@H]6C5)cc4)no3)c2cc1F (relative stereo) [A214, 3-(3-{4-[(cis)-octahydropyrano[3,4-c]pyrrole-2-carbonyl]phenyl}-1,2-oxazol-5-yl)-5-fluoro-6-(2-methoxyethoxy)-1H-indazole] | 0.44 | 37 | – | –
COCCOc1cc2[nH]nc(-c3cc(-c4ccc(C(=O)N5Cc6ccncc6C5)cc4)no3)c2cc1F [A183, 5-fluoro-6-(2-methoxyethoxy)-3-[3-(4-{1H,2H,3H-pyrrolo[3,4-c]pyridine-2-carbonyl}phenyl)-1,2-oxazol-5-yl]-1H-indazole] | 0.55 | 18 | – | –
COCCOc1cc2[nH]nc(-c3cn(-c4ccc(C(=O)N5CCC[C@H]5C(C)(C)O)cc4)nn3)c2cc1F [reference compound] | – | – | 2.5 | 79
COCCOc1cc2[nH]nc(-c3cn(-c4ccc(C(=O)N5C[C@H]6COC[C@H]6C5)cc4)nn3)c2cc1F [reference compound] | – | – | 5 | 470
COC(CO)COc1cc2[nH]nc(-c3cc(-c4ccc(C(=O)N(C)C)cc4)no3)c2cc1F (stereo not shown) [A49, 4-{5-[5-fluoro-6-(3-hydroxy-2-methoxypropoxy)-1H-indazol-3-yl]-1,2-oxazol-3-yl}-N,N-dimethylbenzamide] | 1.9 | 500 | – | –
COCCOc1cc2[nH]nc(-c3cc(-c4ccc(C(=O)N5CCC6(CC5)CN(C)C6)cc4)no3)c2cc1F [A176, 7-(4-{5-[5-fluoro-6-(2-methoxyethoxy)-1H-indazol-3-yl]-1,2-oxazol-3-yl}benzoyl)-2-methyl-2,7-diazaspiro[3.5]nonane] | 2.6 | 320 | – | –
COCCOc1cc2[nH]nc(-c3cc(-c4ccc(N5CC[C@@H]6[C@@H]5CCN6C)cc4)no3)c2cc1F (relative stereo) [A126, 3-(3-{4-[(trans)-4-methyl-octahydropyrrolo[3,2-b]pyrrol-1-yl]phenyl}-1,2-oxazol-5-yl)-5-fluoro-6-(2-methoxyethoxy)-1H-indazole] | 1.7 | 200 | – | –
CCOc1cc2[nH]nc(-c3cc(-c4ccc(C(=O)N5CCN(C6COC6)CC5)cc4)no3)c2cc1F [A229, 6-ethoxy-5-fluoro-3-(3-{4-[4-(oxetan-3-yl)piperazine-1-carbonyl]phenyl}-1,2-oxazol-5-yl)-1H-indazole] | 47 | 1100 | – | –
COCCOc1cc2[nH]nc(-c3cc(-c4ccc(C(=O)N5CC[C@H]5CS(C)(=O)=O)cc4)no3)c2cc1F [A152, 5-fluoro-3-(3-{4-[(2S)-2-(methanesulfonylmethyl)azetidine-1-carbonyl]phenyl}-1,2-oxazol-5-yl)-6-(2-methoxyethoxy)-1H-indazole] | 0.88 | 64 | – | –
COCCOc1cc2[nH]nc(-c3cc(-c4ccc(C(=O)N5CCC[C@@H]5CO)nc4)no3)c2cc1F [A62, (5-{5-[5-fluoro-6-(2-methoxy-ethoxy)-1H-indazol-3-yl]-isoxazol-3-yl}-pyridin-2-yl)-((R)-2-hydroxymethyl-pyrrolidin-1-yl)-methanone] | 5.6 | 450 | – | –
COCCOc1cc2[nH]nc(-c3cc(-c4ccc(C(=O)N5CCC[C@H]5CO)nc4)no3)c2cc1F [A63, (5-{5-[5-fluoro-6-(2-methoxy-ethoxy)-1H-indazol-3-yl]-isoxazol-3-yl}-pyridin-2-yl)-((S)-2-hydroxymethyl-pyrrolidin-1-yl)-methanone] | 5.7 | 290 | – | –
COCCOc1cc2[nH]nc(-c3cc(-c4ccc(C(=O)N5CCCN(C6COC6)CC5)cc4)no3)c2cc1F [A198, 5-fluoro-6-(2-methoxyethoxy)-3-(3-{4-[4-(oxetan-3-yl)-1,4-diazepane-1-carbonyl]phenyl}-1,2-oxazol-5-yl)-1H-indazole] | 0.92 | 73 | – | –

Other lines, results leading:

IC50 (c-Kit(V654A); Table 1, 200 μM ATP) [nM] | IC50 [1, 2] [nM] | IC50 (c-Kit(V654A); [3]) [nM] | IC50 [1, 3] [nM] | SMILES
1.3 | 61 | – | – | COCCOc1cc2[nH]nc(-c3cc(-c4ccc(C(=O)N5CC(OC)C5)cc4)no3)c2cc1F [A33, 5-fluoro-3-{3-[4-(3-methoxyazetidine-1-carbonyl)phenyl]-1,2-oxazol-5-yl}-6-(2-methoxyethoxy)-1H-indazole]
0.91 | 37 | – | – | COCCOc1cc2[nH]nc(-c3cc(-c4ccc(C(=O)N5CC[C@H]5CO)cc4)no3)c2cc1F [A95, [(2S)-1-(4-{5-[5-fluoro-6-(2-methoxyethoxy)-1H-indazol-3-yl]-1,2-oxazol-3-yl}benzoyl)azetidin-2-yl]methanol]
2 | 150 | – | – | COCCOc1cc2[nH]nc(-c3cc(-c4ccc(S(C)(=N)=O)cc4)no3)c2cc1F (stereo not shown) [A226, (4-{5-[5-fluoro-6-(2-methoxyethoxy)-1H-indazol-3-yl]-1,2-oxazol-3-yl}phenyl)(imino)methyl-lambda6-sulfanone]
2 | 79 | – | – | COCCOc1cc2[nH]nc(-c3cc(-c4ccc(C(=O)N5CC(N(C)C)C5)cc4)no3)c2cc1F [A76, 1-(4-{5-[5-fluoro-6-(2-methoxyethoxy)-1H-indazol-3-yl]-1,2-oxazol-3-yl}benzoyl)-N,N-dimethylazetidin-3-amine]
1.1 | 170 | – | – | COCCOc1cc2[nH]nc(-c3cc(-c4ccc(C(=O)N5CC6(CCO6)C5)cc4)no3)c2cc1F [A79, 5-fluoro-6-(2-methoxyethoxy)-3-[3-(4-{1-oxa-6-azaspiro[3.3]heptane-6-carbonyl}phenyl)-1,2-oxazol-5-yl]-1H-indazole]
0.49 | 48 | – | – | COCCOc1cc2[nH]nc(-c3cc(-c4ccc(C(=O)N5Cc6cnn(C)c6C5)cc4)no3)c2cc1F [A213, 5-fluoro-6-(2-methoxyethoxy)-3-[3-(4-{1-methyl-1H,4H,5H,6H-pyrrolo[3,4-c]pyrazole-5-carbonyl}phenyl)-1,2-oxazol-5-yl]-1H-indazole]
18 | 860 | – | – | COCCOc1cc2[nH]nc(-c3cc(-c4ccc(Oc5ccccn5)cc4)no3)c2cc1F [A143, 5-fluoro-6-(2-methoxyethoxy)-3-{3-[4-(pyridin-2-yloxy)phenyl]-1,2-oxazol-5-yl}-1H-indazole]
8.2 | 160 | – | – | COCCOc1cc2[nH]nc(-c3cc(-c4ccc(NC(C)=O)cc4)no3)c2cc1F [A18, N-(4-{5-[5-fluoro-6-(2-methoxyethoxy)-1H-indazol-3-yl]-1,2-oxazol-3-yl}phenyl)acetamide]
1.7 | 80 | – | – | COCCOc1cc2[nH]nc(-c3cc(-c4ccc(N=S5(=O)CCNCC5)cc4)no3)c2cc1F [A129, 1-[(4-{5-[5-fluoro-6-(2-methoxyethoxy)-1H-indazol-3-yl]-1,2-oxazol-3-yl}phenyl)imino]-1lambda6-thiomorpholin-1-one]
